The target of one assay is CDK1/Cyclin B1 (Homo sapiens, UniProt P06493). Put plainly: CDK1/Cyclin B1 Biochemical Assay (TR-FRET), 0.015 mM ATP. To be noted: 0.15 μM Rb (Ser780)-biotin substrate, pH7.0, 60 min preincubation, 120 min reaction, room temperature. The procedure, abridged: (§1)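 TR-FRET readout: 665/620 nm ratio from Eu-cryptate anti-pRb(Ser780) antibody plus streptavidin-XL665, converted to % inhibition and fitted (4-parameter logistic) for IC50. Reactions used 0.15 μM biotinylated Rb (Ser780) substrate, compound 0–10 μM, 60 min enzyme–compound preincubation, then 120 min reaction at room temperature.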
Sequence of CDK1/Cyclin B1 (P06493 whole entry): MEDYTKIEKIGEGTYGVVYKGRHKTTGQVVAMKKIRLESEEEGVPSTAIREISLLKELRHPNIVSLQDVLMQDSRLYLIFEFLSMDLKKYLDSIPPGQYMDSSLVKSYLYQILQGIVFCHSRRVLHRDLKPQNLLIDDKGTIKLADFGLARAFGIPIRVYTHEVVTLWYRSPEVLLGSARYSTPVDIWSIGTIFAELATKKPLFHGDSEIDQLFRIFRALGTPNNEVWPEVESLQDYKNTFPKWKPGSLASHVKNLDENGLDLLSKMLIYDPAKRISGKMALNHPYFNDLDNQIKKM
Sequence of CDK1/Cyclin B1 (P14635 whole entry partner): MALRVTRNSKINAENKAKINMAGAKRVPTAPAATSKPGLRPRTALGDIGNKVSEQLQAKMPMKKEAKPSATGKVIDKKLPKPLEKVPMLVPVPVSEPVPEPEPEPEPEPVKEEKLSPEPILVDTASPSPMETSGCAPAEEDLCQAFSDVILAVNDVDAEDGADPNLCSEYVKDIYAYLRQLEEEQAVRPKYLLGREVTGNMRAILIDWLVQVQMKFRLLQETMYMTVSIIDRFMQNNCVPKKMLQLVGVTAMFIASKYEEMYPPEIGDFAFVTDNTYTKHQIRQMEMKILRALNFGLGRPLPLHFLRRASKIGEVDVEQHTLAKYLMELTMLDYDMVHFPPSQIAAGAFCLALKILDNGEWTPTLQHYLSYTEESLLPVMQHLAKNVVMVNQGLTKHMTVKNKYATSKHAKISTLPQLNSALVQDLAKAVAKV
Background: Time-resolved FRET reads energy transfer from a long-lived donor to a nearby acceptor.

Another assay concerns the target CDK2/Cyclin E1 (Homo sapiens, UniProt P24941). Put plainly: CDK2/Cyclin E1 Biochemical Assay (TR-FRET), 0.060 mM ATP. To be noted: 0.15 μM Rb (Ser780)-biotin substrate, pH7.0, 60 min preincubation, 120 min reaction, room temperature. The procedure, abridged:
as §1

Each structure is given as a SMILES string. Bounds are passed on as bounds.

A word on the IC50: it is the concentration that inhibits the measured activity by half. A higher IC50 goes with weaker potency in that assay.

As to `COCC(C)(C)NC(=O)O[C@H]1CC[C@@H](c2cc(Nc3ccc4c(c3F)CS(=O)(=O)N4CC(F)(F)F)n[nH]2)C1` (relative stereo) [Example 416, cis-3-(3-((4-fluoro-2,2-dioxido-1-(2,2,2-trifluoroethyl)-1,3-dihydrobenzo[c]isothiazol-5-yl)amino)-1H-pyrazol-5-yl)cyclopentyl(1-methoxy-2-methylpropan-2-yl)carbamate], the IC50 amounted to 0.067 µM against CDK1/Cyclin B1 and 0.0021 µM at CDK2/Cyclin E1.

Take `CCCNC(=O)O[C@H]1CC[C@@H](c2cc(Nc3ccc4c(c3F)CN(C3CC3)S4(=O)=O)n[nH]2)C1` (racemic) [Example 118, cis-3-(3-((2-cyclopropyl-4-fluoro-1,1-dioxido-2,3-dihydrobenzo[d]isothiazol-5-yl)amino)-1H-pyrazol-5-yl)cyclopentyl propylcarbamate]: the IC50 against CDK1/Cyclin B1 came out at 0.345 µM; against CDK2/Cyclin E1, 0.0031 µM.

For `CC1NS(=O)(=O)c2ccc(Nc3cc([C@@H]4CC[C@H](OC(=O)NC5(C)CC5)C4)[nH]n3)c(F)c21` (single isomer, unassigned) [Example 52b, cis-3-(3-((4-fluoro-3-methyl-1,1-dioxido-2,3-dihydrobenzo[d]isothiazol-5-yl)amino)-1H-pyrazol-5-yl)cyclopentyl(1-methylcyclopropyl)carbamate], the figures for the IC50 at CDK1/Cyclin B1 and at CDK2/Cyclin E1 were 0.153 µM and 0.0027 µM, respectively.

Consider `[2H]C([2H])([2H])N1c2ccc(Nc3cc([C@@H]4CC[C@H](OC(=O)NCCC)C4)[nH]n3)c(F)c2CS1(=O)=O` (single isomer, unassigned) [Example 268b, cis-3-(3-((4-fluoro-1-(methyl-d3)-2,2-dioxido-1,3-dihydrobenzo[c]isothiazol-5-yl)amino)-1H-pyrazol-5-yl)cyclopentyl propylcarbamate], for which the IC50 is 0.075 µM at CDK1/Cyclin B1 and 0.004 µM against CDK2/Cyclin E1.

As for `CC(C)NC(=O)O[C@H]1CC[C@@H](c2cc(Nc3ccc4c(c3F)CS(=O)(=O)N4C3CC3)n[nH]2)C1` (single isomer, unassigned) [Example 275b, cis-3-(3-((1-cyclopropyl-4-fluoro-2,2-dioxido-1,3-dihydrobenzo[c]isothiazol-5-yl)amino)-1H-pyrazol-5-yl)cyclopentyl isopropylcarbamate], the IC50 was found to be 0.16 µM at CDK1/Cyclin B1 and 0.0031 µM on CDK2/Cyclin E1.

As to `CC(C)NC(=O)O[C@H]1CC[C@@H](c2cc(Nc3cc4c(cc3F)S(=O)(=O)N(C(C)C)C4)n[nH]2)C1` (relative stereo) [Example 49, cis-3-(3-((6-fluoro-2-isopropyl-1,1-dioxido-2,3-dihydrobenzo[d]isothiazol-5-yl)amino)-1H-pyrazol-5-yl)cyclopentyl isopropylcarbamate], the IC50 at CDK1/Cyclin B1 was greater than 10 µM; against CDK2/Cyclin E1, 0.758 µM.

With `CC1(NC(=O)O[C@H]2CC[C@@H](c3cc(Nc4ccc5c(c4F)CN(C4CC4)S5(=O)=O)n[nH]3)C2)COC1` (relative stereo) [Example 372, cis-3-(3-((2-cyclopropyl-4-fluoro-1,1-dioxido-2,3-dihydrobenzo[d]isothiazol-5-yl)amino)-1H-pyrazol-5-yl)cyclopentyl(3-methyloxetan-3-yl)carbamate], the IC50 against CDK1/Cyclin B1 came out at 0.395 µM; at CDK2/Cyclin E1 it was 0.0068 µM.

In the case of `CC1(NC(=O)O[C@H]2CC[C@@H](c3cc(Nc4ccc5c(c4F)CS(=O)(=O)N5)n[nH]3)C2)CCOC1` (relative stereo) [Example 375, cis-3-(3-((4-fluoro-2,2-dioxido-1,3-dihydrobenzo[c]isothiazol-5-yl)amino)-1H-pyrazol-5-yl)cyclopentyl(3-methyltetrahydrofuran-3-yl)carbamate], the IC50 was found to be 0.095 µM against CDK1/Cyclin B1 and 0.0046 µM on CDK2/Cyclin E1.

Take `CCCNC(=O)O[C@H]1CC[C@@H](c2cc(Nc3ccc4c(c3Cl)CNS4(=O)=O)n[nH]2)C1` (racemic) [Example 39, cis-3-(3-((4-chloro-1,1-dioxido-2,3-dihydrobenzo[d]isothiazol-5-yl)amino)-1H-pyrazol-5-yl)cyclopentyl propylcarbamate]: the IC50 was determined as 0.374 µM at CDK1/Cyclin B1 and 0.015 µM on CDK2/Cyclin E1.

As for `CCCNC(=O)O[C@H]1CC[C@@H](c2cc(Nc3ccc4c(c3F)C(C)(C)NS4(=O)=O)n[nH]2)C1` (relative stereo) [Example 58, cis-3-(3-((4-fluoro-3,3-dimethyl-1,1-dioxido-2,3-dihydrobenzo[d]isothiazol-5-yl)amino)-1H-pyrazol-5-yl)cyclopentyl propylcarbamate], the figures for the IC50 on CDK1/Cyclin B1 and on CDK2/Cyclin E1 were 0.694 µM and 0.093 µM, respectively.

As for `CC1NS(=O)(=O)c2ccc(Nc3cc([C@@H]4CC[C@H](OC(=O)NC5(C)CC5)C4)[nH]n3)c(F)c21` (single isomer, unassigned) [Example 52a, cis-3-(3-((4-fluoro-3-methyl-1,1-dioxido-2,3-dihydrobenzo[d]isothiazol-5-yl)amino)-1H-pyrazol-5-yl)cyclopentyl(1-methylcyclopropyl)carbamate], the results for the half-inhibitory concentration (IC50) at CDK1/Cyclin B1 and on CDK2/Cyclin E1 were 0.274 µM and 0.0035 µM, respectively.

As to `CCCNC(=O)O[C@H]1CC[C@@H](c2cc(Nc3ccc4c(c3)CS(=O)(=O)N4)n[nH]2)C1` (single isomer, unassigned) [Example 195a, cis-3-(3-((2,2-dioxido-1,3-dihydrobenzo[c]isothiazol-5-yl)amino)-1H-pyrazol-5-yl)cyclopentyl propylcarbamate], the results for the half-inhibitory concentration (IC50) against CDK1/Cyclin B1 and at CDK2/Cyclin E1 were 0.073 µM and 0.012 µM, respectively.

Consider `CC[C@H](C)NC(=O)O[C@H]1CC[C@@H](c2cc(Nc3ccc4c(c3F)C(C)NS4(=O)=O)n[nH]2)C1` (single isomer, unassigned) [Example 54d], for which the values for the half-inhibitory concentration (IC50) against CDK1/Cyclin B1 and against CDK2/Cyclin E1 were 0.428 µM and 0.0032 µM, respectively.

On to `CCCNC(=O)O[C@H]1CC[C@@H](c2cc(Nc3ccc4c(c3F)S(=O)(=O)NC4)n[nH]2)C1` (single isomer, unassigned) [Example 189a, cis-3-(3-((7-fluoro-1,1-dioxido-2,3-dihydrobenzo[d]isothiazol-6-yl)amino)-1H-pyrazol-5-yl)cyclopentyl propylcarbamate], for which the IC50 stood at 0.35 µM against CDK1/Cyclin B1 and 0.01 µM on CDK2/Cyclin E1.

With `CC1(NC(=O)O[C@H]2CC[C@@H](c3cc(Nc4ccc5c(c4F)CNS5(=O)=O)n[nH]3)C2)CCC1` (relative stereo) [Example 163, cis-3-(3-((4-fluoro-1,1-dioxido-2,3-dihydrobenzo[d]isothiazol-5-yl)amino)-1H-pyrazol-5-yl)cyclopentyl(1-methylcyclobutyl)carbamate], the values for the IC50 on CDK1/Cyclin B1 and at CDK2/Cyclin E1 were 0.018 µM and 0.0008 µM, respectively.

On to `CC1(NC(=O)O[C@H]2CC[C@@H](c3cc(Nc4ccc5c(c4)CCS(=O)(=O)N5)n[nH]3)C2)CC1` (single isomer, unassigned) [Example 249a, cis-3-(3-((2,2-dioxido-3,4-dihydro-1H-benzo[c][1,2]thiazin-6-yl)amino)-1H-pyrazol-5-yl)cyclopentyl(1-methylcyclopropyl)carbamate], for which the half-maximal inhibitory concentration (IC50) against CDK1/Cyclin B1 worked out at 0.031 µM; against CDK2/Cyclin E1, 0.0011 µM.

With `CC(C)NC(=O)O[C@H]1CC[C@@H](c2cc(Nc3cc(F)c4c(c3)NS(=O)(=O)C4)n[nH]2)C1` (relative stereo) [Example 311, cis-3-(3-((4-fluoro-2,2-dioxido-1,3-dihydrobenzo[c]isothiazol-6-yl)amino)-1H-pyrazol-5-yl)cyclopentyl isopropylcarbamate], the results for the IC50 against CDK1/Cyclin B1 and at CDK2/Cyclin E1 were 0.158 µM and 0.006 µM, respectively.

As for `CC(C)NC(=O)O[C@H]1CC[C@@H](c2cc(Nc3cnc4c(c3)CNS4(=O)=O)n[nH]2)C1` (relative stereo) [Example 31, cis-3-(3-((1,1-dioxido-2,3-dihydroisothiazolo[5,4-b]pyridin-5-yl)amino)-1H-pyrazol-5-yl)cyclopentyl isopropylcarbamate], the IC50 at CDK1/Cyclin B1 worked out at 0.166 µM; against CDK2/Cyclin E1, 0.007 µM.

On to `CC(C)NC(=O)O[C@H]1CC[C@@H](c2cc(Nc3ccc4c(c3)CS(=O)(=O)N4CC(C)(C)O)n[nH]2)C1` (relative stereo) [Example 216, cis-3-(3-((1-(2-hydroxy-2-methylpropyl)-2,2-dioxido-1,3-dihydrobenzo[c]isothiazol-5-yl)amino)-1H-pyrazol-5-yl)cyclopentyl isopropylcarbamate], for which the IC50 on CDK1/Cyclin B1 amounted to 0.054 µM; against CDK2/Cyclin E1 it was 0.0078 µM.

Turning to `CN1c2ccc(Nc3cc([C@@H]4CC[C@H](OC(=O)NC56CC(C5)C6)C4)[nH]n3)cc2CS1(=O)=O` (relative stereo) [Example 231, cis-3-(3-((1-methyl-2,2-dioxido-1,3-dihydrobenzo[c]isothiazol-5-yl)amino)-1H-pyrazol-5-yl)cyclopentyl bicyclo[1.1.1]pentan-1-ylcarbamate], the results for the concentration for half-maximal inhibition (IC50) against CDK1/Cyclin B1 and against CDK2/Cyclin E1 were 0.013 µM and 0.0015 µM, respectively.

On to `O=C(O[C@H]1CC[C@@H](c2cc(Nc3ccc4c(c3)CS(=O)(=O)N4)n[nH]2)C1)N1CCOCC1` (relative stereo) [Example 382, cis-3-(3-((2,2-dioxido-1,3-dihydrobenzo[c]isothiazol-5-yl)amino)-1H-pyrazol-5-yl)cyclopentyl morpholine-4-carboxylate], for which the results for the IC50 against CDK1/Cyclin B1 and against CDK2/Cyclin E1 were 0.214 µM and 0.0097 µM, respectively.

Take `CC[C@H](C)NC(=O)O[C@H]1CC[C@@H](c2cc(Nc3ccc4c(c3F)CNS4(=O)=O)n[nH]2)C1` (single isomer, unassigned) [Example 139a]: the IC50 against CDK1/Cyclin B1 was found to be 0.223 µM; against CDK2/Cyclin E1, 0.0012 µM.

Consider `CC(C)NC(=O)O[C@H]1CC[C@@H](c2cc(Nc3ccc4c(c3F)CN(C3CCC3O)S4(=O)=O)n[nH]2)C1` (single isomer, unassigned) [Example 102, cis-3-(3-((4-fluoro-2-(2-hydroxycyclobutyl)-1,1-dioxido-2,3-dihydrobenzo[d]isothiazol-5-yl)amino)-1H-pyrazol-5-yl)cyclopentyl isopropylcarbamate], for which the IC50 against CDK1/Cyclin B1 is 0.406 µM; at CDK2/Cyclin E1 it was 0.0051 µM.

(Values after patent US20260297080A1, “BICYCLIC COMPOUNDS AS CDK INHIBITORS” (BeOne Medicines I GmbH, priority 2022, published 2026).)
